According to ChEMBL document CHEMBL1136069, “Urea small molecule agonists on mouse melanocortin receptors” (Bioorg Med Chem Lett, 2003):
pEC50: −log10 of the molar value.

Experiments:
[1] = target: Melanocyte-stimulating hormone receptor (Mus musculus, UniProt Q01727); test: Agonist activity on mouse melanocortin 1 receptor (mMC1R) stably expressed in HEK cells; type: functional, cell-based, HEK293
Melanocortin receptor 4 = Melanocortin receptor 4 (Mus musculus, UniProt P56450); test: Agonist activity on mouse melanocortin 4 receptor (mMC4R) stably expressed in […] cells; type: functional, cell-based
Melanocortin receptor 5 = Melanocortin receptor 5 (Mus musculus, UniProt P41149); test: Agonist activity on mouse melanocortin 5 receptor (mMC5R) stably expressed in […] cells; type: functional, cell-based
Melanocortin receptor 3 = Melanocortin receptor 3 (Mus musculus, UniProt P33033); test: Agonist activity on mouse Melanocortin 3 receptor (mMC3R) stably expressed in HEK cells; type: functional, cell-based, HEK293
Chain of Melanocortin receptor 3 (P33033 whole entry): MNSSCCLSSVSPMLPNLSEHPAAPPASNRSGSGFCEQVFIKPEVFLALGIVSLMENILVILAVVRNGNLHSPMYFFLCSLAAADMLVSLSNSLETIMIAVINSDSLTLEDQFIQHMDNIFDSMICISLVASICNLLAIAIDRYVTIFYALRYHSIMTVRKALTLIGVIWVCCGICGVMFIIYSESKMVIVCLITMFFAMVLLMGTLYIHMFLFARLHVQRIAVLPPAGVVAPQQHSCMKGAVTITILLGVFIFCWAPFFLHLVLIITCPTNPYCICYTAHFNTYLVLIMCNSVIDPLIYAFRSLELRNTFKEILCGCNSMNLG

Chain of Melanocortin receptor 5 (P41149 whole entry): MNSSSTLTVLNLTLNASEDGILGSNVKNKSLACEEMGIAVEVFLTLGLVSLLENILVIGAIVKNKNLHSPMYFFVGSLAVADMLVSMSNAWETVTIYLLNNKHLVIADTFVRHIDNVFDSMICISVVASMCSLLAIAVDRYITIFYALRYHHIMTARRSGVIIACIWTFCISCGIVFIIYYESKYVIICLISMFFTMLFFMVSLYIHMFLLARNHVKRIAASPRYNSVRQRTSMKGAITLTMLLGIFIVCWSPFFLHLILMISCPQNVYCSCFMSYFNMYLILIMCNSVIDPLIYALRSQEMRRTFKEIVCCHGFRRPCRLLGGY
Chain of Melanocyte-stimulating hormone receptor (Q01727 whole entry): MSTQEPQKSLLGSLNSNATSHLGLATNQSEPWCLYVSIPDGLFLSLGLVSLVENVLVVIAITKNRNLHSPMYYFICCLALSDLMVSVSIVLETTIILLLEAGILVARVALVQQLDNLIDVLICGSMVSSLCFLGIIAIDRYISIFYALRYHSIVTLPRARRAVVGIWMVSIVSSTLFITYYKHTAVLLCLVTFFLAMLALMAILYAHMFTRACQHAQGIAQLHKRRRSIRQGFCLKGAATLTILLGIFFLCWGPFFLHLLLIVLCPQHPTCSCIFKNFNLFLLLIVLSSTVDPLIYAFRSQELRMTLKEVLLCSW
Chain of Melanocortin receptor 4 (P56450 whole entry): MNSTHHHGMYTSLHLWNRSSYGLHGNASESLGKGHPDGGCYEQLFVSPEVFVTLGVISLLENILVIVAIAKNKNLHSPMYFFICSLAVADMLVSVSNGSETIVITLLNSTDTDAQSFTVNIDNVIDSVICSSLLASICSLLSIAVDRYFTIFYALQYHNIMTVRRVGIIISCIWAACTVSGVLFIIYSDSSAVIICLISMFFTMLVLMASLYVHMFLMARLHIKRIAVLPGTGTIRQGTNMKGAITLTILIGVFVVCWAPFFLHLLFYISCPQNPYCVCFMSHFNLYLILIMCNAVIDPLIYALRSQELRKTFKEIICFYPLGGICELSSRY

Structure (SMILES) | pEC50 [1] | pEC50 (Melanocortin receptor 4) | pEC50 (Melanocortin receptor 5) | pEC50 (Melanocortin receptor 3)
NCc1ccc(NC(=O)[C@H](Cc2c[nH]c3ccccc23)NC(=O)NCc2ccccc2)cc1 | 6.40 | 6.40 | 5.31 | 4.97
NCCCCNC(=O)[C@H](CCc1ccccc1)NC(=O)NCc1ccccc1 | < 4.00 | < 4.00 | < 4.00 | < 4.00
NCCCNC(=O)[C@H](Cc1c[nH]c2ccccc12)NC(=O)NCc1ccccc1 | 4.29 | < 4.00 | 4.40 | < 4.00
NCCCCCCNC(=O)[C@H](Cc1c[nH]c2ccccc12)NC(=O)NCc1ccccc1 | 4.65 | < 4.00 | < 4.00 | < 4.00
NCCCCNC(=O)[C@H](Cc1c[nH]c2ccccc12)NC(=O)NC1CCN(Cc2ccccc2)CC1 | 5.30 | 5.55 | 5.09 | 5.36
NCCCCCNC(=O)[C@H](Cc1c[nH]c2ccccc12)NC(=O)NCc1ccccc1 | 4.83 | < 4.00 | 4.70 | < 4.00
NCCCCNC(=O)[C@H](Cc1c[nH]c2ccccc12)NC(=O)NCc1ccccc1 | 4.26 | 4.63 | 4.52 | < 4.00
NCCCCNC(=O)[C@H](Cc1c[nH]c2ccccc12)NC(=O)NCCc1ccccc1 | < 4.00 | < 4.00 | < 4.00 | < 4.00
Cc1cccc(CNC(=O)[C@H](Cc2c[nH]c3ccccc23)NC(=O)NCc2ccccc2)c1 | 4.55 | < 4.00 | < 4.00 | < 4.00
NCCCCNC(=O)[C@H](Cc1c[nH]c2ccccc12)NC(=O)NN1CCc2ccccc2C1 | 5.10 | 5.47 | 5.31 | 5.77
NCCCCNC(=O)[C@H](Cc1c[nH]c2ccccc12)NC(=O)NN1CCC(Cc2ccccc2)CC1 | 4.70 | 4.00 | 4.54 | 4.00
NCCCCNC(=O)[C@H](Cc1ccc(OCc2ccccc2)cc1)NC(=O)NCc1ccccc1 | 4.69 | < 4.00 | 4.84 | < 4.00
NCCCCNC(=O)[C@@H](Cc1c[nH]c2ccccc12)NC(=O)NCc1ccccc1 | 4.37 | 4.63 | 4.48 | 4.00
CC1CCN(CNC(=O)[C@H](Cc2c[nH]c3ccccc23)NC(=O)NCc2ccccc2)CC1 | 5.28 | < 4.00 | 5.09 | 5.36
